According to publication PMC6368337, “GluClR-mediated inhibitory postsynaptic currents reveal targets for ivermectin and potential mechanisms of ivermectin resistance” (PLoS Pathogens, 2019):

Experiments:
αβ (1:50) GluClRs = αβ (1:50) GluClRs (Haemonchus contortus, UniProt O46124+P91730); assay: Two-electrode voltage clamp in oocytes, αβ (1:50) GluClRs; assay type: cell-based, H. contortus
Method: (§1) cDNAs encoding the α (avr-14b) (pcDNA 3.1+) or β (pUNIV) GluClR subunits of H. contortus were nuclear injected into oocytes (NASCO, WI USA) or transfected into HEK293AD cells (CellBank Australia) using a calcium phosphate-DNA co-precipitate method. Synapse formation between neurons and HEK293 cells was promoted by co-transfecting neuroligin 2A or 1B and the cDNA encoding CD4 surface antigen was also added to the transfection mixture so as to identify transfected cells. The oocytes and HEK cells were used for experiments 2–3 days after the introduction of the cDNAs. All experiments were done at room temperature (22 ± 1°C).
Xenopus laevis oocytes were harvested by surgical incision. The oocytes were then defolliculated with 1.5 mg/ml collagenase for 2 hours. Free oocytes were rinsed with calcium-free OR-2 solution containing (in mM) 82.5 NaCl, 2 KCl, 1 MgCl2, 5 HEPES, pH 7.4 and mature stage V or VI oocytes were isolated for experiments. The DNAs coding for α and β subunits were nuclear injected into the oocytes using a Nanoliter 2000 microinjector (WPI Inc) at a ratio of (α:β), 1:0, 0:1, 1:1 and 1:50. The total amount of injected DNA in all combinations was 400 ng ml^−1, including the 1:50 (α:β) combination (8 ng of DNA encoding the α and 392 ng of DNA encoding β subunits). Injected oocytes were incubated in ND96 storage solution (in mM) 96 NaCl, 2 KCl, 1 MgCl2.6H2O, 1.8 CaCl2, 5 HEPES, 50 μg ml^−1 gentamicin, 2.5 sodium pyruvate, 0.5 theophylline, pH 7.4 at 16°C for 2–3 days before experiment.
For the two-electrode voltage clamp recordings, each oocyte was secured in a cell bath that was continually perfused with ND96 recording solution (ND96 storage solution without pyruvate, theophylline and gentamicin). […] The two microelectrodes contained 3 M KCl and had resistances of 0.2–2 MΩ. Recordings were done using Clampex 10.2 software (Molecular Devices) at a clamped voltage of −40 mV. Currents were low-pass filtered at 200 Hz, sampled at 2 kHz using a Gene Clamp 500B amplifier and digitised by a Digidata 1440A interface. The IVM (IVM B1a) concentration-response experiments were standardised by using an application protocol that consisted of applying increasing concentrations of IVM for, respectively, 3 min, 3 min, 3 min, 2 min, 1 min, 1 min and 0.5 min.
Group data were analysed in SigmaPlot 13.0 using one-way ANOVAs, where p < 0.05 was taken as the significance threshold and expressed as mean ± SEM. Tests for normally distributed data are built into the SigmaPlot software. Confocal images were captured and analysed with Zen 2012 SP2 (Zeiss) software. Oocyte concentration-response data were fit to a Hill equation to obtain an EC50 and Hill co-efficient for each oocyte recording. These parameters were then averaged across multiple oocyte experiments of the same type. Single channel recordings were analysed in QuB software. […] The selected critical times eliminated periods of receptor desensitisation while retaining singe receptor active periods. Mean active period duration and intra-activation open probability was estimated from each patch. Group means were obtained by averaging across multiple patches for each recording condition.

α GluClRs = assay: IPSC recording in HEK293-neuron heteroculture, α GluClRs; assay type: cell-based, H. contortus; details: 5 nM IVM
Method: as §1
Primary neuronal cultures were prepared from cortices of E18 rat embryos, (University of Queensland Biological Services), which were triturated and plated at 100,000 cells per 18-mm poly-D-lysine-coated coverslip in DMEM with 10% fetal bovine serum. After 24 h the entire medium was replaced with Neurobasal medium that included 2% B27 and 1% GlutaMAX supplements. After one week half of this medium was replaced and the neurons were allowed to grow in vitro for 3–5 weeks before introducing the transfected HEK293 cells. Recordings of synaptic currents were done in whole-cell configuration at ‐70 mV using an Axopatch 200B amplifier (Molecular Devices), filtered at 5 kHz and digitized at 20 kHz using Clampex (pClamp 10 suite, Molecular Devices) via a Digidata 1440A digitizer.

[1] = test system: Untransfected HEK293 cells; assay: Fluorescence recovery after photobleaching (FRAP), lateral membrane diffusion; details: in cell membrane
Method: The second experiment was aimed at determining the lateral membrane diffusion properties of IVM using the fluorescence recovery after photobleaching (FRAP) technique. After a 30-min equilibration time, 5 cells were monitored for fluorescence recovery within a bleached circular patch of membrane of 3.7 μm diameter (Fig 8C). Any bleaching and recovery of the surrounding area of the cell was measured, using a similar circular patch and used to correct the recovery rate of the membrane delineated by the bleached area. We also noted that the recovery reached 98 ± 2% of control. The time constant (τ) for recovery of 1.3 minutes was used to calculate the diffusion coefficient (D), using the radius (r) of the bleached patch, according to D = r^2/4τ. The calculated value of D was 1.1 x 10^−2 μm^2s^−1. Over the course of 1 s, the IVM-bdpy probe would traverse 0.2 μm along the membrane surface (lateral diffusion rate of 0.2 μms^−1). […] We infer that this slow lateral diffusion rate coupled to membrane partitioning are the major contributors to local increases of IVM around its target binding sites and the slow quasi-irreversible actions of IVM at GluClRs.
Membrane partitioning and FRAP experiments were performed on an LSM 710 inverted 2-photon confocal microscope equipped with a 40X water immersion objective lens (1.2 NA/280 μM WD/0.208 μM/pixel and a GFP/Alexa 488 filter set. Untransfected HEK293 cells at a confluency of 50–75% were plated onto 35-mm glass bottom dishes one day prior to experiments. The IVM-bdpy fluorophore was dissolved in 100% DMSO and stored at ‐20°C at a concentration of 24 mM.
A Mai Tai eHP 2-photon laser/760-1040 nm was used as an excitation source (power at 920 nm) for the FRAP experiments. The laser and bleaching power were set to 7% and 75% respectively. Membrane partitioning images were taken for 35 min at 0.5 Hz after replacing the cell medium (extracellular solution) with one containing the IVM-bdpy probe at a concentration of 500 nM. FRAP images were taken at a frequency of 0.5 Hz for 10 min after a 30 min equilibration period in 500 nM IVM-bdpy.

Chain of αβ (1:50) GluClRs (O46124 entry or part of it): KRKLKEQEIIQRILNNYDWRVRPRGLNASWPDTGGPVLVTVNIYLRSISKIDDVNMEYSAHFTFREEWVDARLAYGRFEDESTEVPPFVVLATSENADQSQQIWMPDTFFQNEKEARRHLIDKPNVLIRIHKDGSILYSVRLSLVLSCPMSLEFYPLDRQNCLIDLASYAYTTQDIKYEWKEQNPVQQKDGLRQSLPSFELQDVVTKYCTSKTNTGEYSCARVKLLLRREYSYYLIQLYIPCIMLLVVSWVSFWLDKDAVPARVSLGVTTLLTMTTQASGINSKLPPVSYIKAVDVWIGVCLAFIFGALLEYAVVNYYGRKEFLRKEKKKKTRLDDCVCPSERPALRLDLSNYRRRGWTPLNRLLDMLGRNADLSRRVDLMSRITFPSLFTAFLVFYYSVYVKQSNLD
Chain of αβ (1:50) GluClRs (P91730 19-432): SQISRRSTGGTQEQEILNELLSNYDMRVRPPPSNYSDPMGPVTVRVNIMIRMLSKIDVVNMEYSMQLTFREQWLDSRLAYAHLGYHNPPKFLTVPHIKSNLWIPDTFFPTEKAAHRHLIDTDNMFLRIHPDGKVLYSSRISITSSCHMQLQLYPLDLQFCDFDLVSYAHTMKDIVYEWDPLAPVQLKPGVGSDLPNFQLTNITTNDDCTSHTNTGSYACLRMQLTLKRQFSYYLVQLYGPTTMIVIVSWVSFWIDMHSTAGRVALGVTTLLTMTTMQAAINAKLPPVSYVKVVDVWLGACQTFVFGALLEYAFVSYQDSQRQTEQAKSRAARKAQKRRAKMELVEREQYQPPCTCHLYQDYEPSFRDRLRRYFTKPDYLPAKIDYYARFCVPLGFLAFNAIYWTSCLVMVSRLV

## CC[C@H](C)[C@H]1O[C@]2(CC[C@@H]1C)C[C@@H]1C[C@@H](C/C=C(\C)[C@@H](O[C@H]3C[C@H](OC)[C@@H](O[C@H]4C[C@H](OC)[C@@H](O)[C@H](C)O4)[C@H](C)O3)[C@@H](C)/C=C/C=C3\CO[C@@H]4[C@H](O)C(C)=C[C@@H](C(=O)O1)[C@]34O)O2 [IVM, Ivermectin]
αβ (1:50) GluClRs; 30 nM, α versus αβ (1:50)
  differential efficacy between α and αβ (1:50) GluClRs: maintained
αβ (1:50) GluClRs; EC50, oocytes, cDNA injection ratio α:β 1:50, −40 mV
  EC50: 141 ± 11 nM
αβ (1:50) GluClRs; oocytes, α:β 1:50, −40 mV
  Hill co-efficient: 1.6 ± 0.1
αβ (1:50) GluClRs; read-out: maximal response, % of saturating glutamate response
  Emax: 33%
α GluClRs; 15 minutes
  IPSC activation (10–90% rise) time: 19 ± 1 ms
  peak IPSC amplitude: 122 ± 39 pA
α GluClRs; 15 minutes after start of application, −70 mV
  IPSC decay time constant: 100 ± 3 ms
[1]
  lateral diffusion rate: 0.2 μms^−1
